Laboratory results as given in US8921373B2, “Compounds having TRPV1 antagonistic activity and uses thereof” (Shionogi & Co., Ltd., priority 2010, dated 2014).

How the values were obtained:
[1] = test system: FCA-induced inflammation of the rat hind paw; assay: Freund's complete adjuvant (FCA) model of inflammatory pain, reversal of hyperalgesia; format: in vivo; conditions: rats
Procedure: Test Animals: Each experiment uses rats weighing between 200-260 g at the start of the experiment. The rats are group-housed and have free access to food and water at all times, except prior to oral administration of a compound of Formula I when food is removed for 16 hours before dosing. A control group acts as a comparison to rats treated with a compound of Formula I. The control group is administered the carrier for the compound of Formula I. The volume of carrier administered to the control group is the same as the volume of carrier and compound of Formula I administered to the test group.
Inflammatory Pain: To assess the actions of the compounds of Formula I on the treatment or prevention of inflammatory pain the Freund's complete adjuvant (“FCA”) model of inflammatory pain is used. […] 24 hour post injection, the animal is assessed for response to noxious mechanical stimuli by determining the PWT, or to noxious thermal stimuli by determining the PWL, as described below. […] Responses to noxious mechanical or thermal stimuli are then determined 1, 3, 5 and 24 hours post administration. […]
Response to Mechanical Stimuli as an Assessment of Mechanical Hyperalgesia: The paw pressure assay can be used to assess mechanical hyperalgesia. For this assay, hind paw withdrawal thresholds (PWT) to a noxious mechanical stimulus are determined using an analgesymeter (Model 7200, commercially available from Ugo Basile of Italy) as described in C. […] PWT is determined once for each rat at each time point and only the affected (ipsilateral) paw is tested.
Response to Thermal Stimuli as an Assessment of Thermal Hyperalgesia: The plantar test can be used to assess thermal hyperalgesia. For this test, hind paw withdrawal latencies (PWL) to a noxious thermal stimulus are determined using a plantar test apparatus (commercially available from Ugo Basile of Italy) following the technique described by K. Hargreaves et al., “A New and Sensitive Method for Measuring Thermal Nociception in Cutaneous Hyperalgesia,” Pain 32(1):77-88 (1988). […] Three latencies are determined at each time point and averaged. […]

[2] = Measurement of body temperature increase (rectal body temperature); format: in vivo, rat; conditions: Crl/SD rats, oral, 1 mg/mL at 10 mL/kg
Procedure: Test Animals: Selection of rats (Crl/SD rats, 7 weeks, male) for this study was based on rectal body temperature measured during the morning of the day of dosing. In addition, animals selected for this study were acclimated to both the rectal measurement procedure and to being handled and dosed to minimize spontaneous, stress-induced, increases in body temperature. The study was conducted in the animal care laboratories where the room temperature and humidity were kept. The rats were free to move and food and water during the study. Each rat was numbered with color line on the tail, housed in each cage and permitted the normal range of movement. Immediately before each body temperature was measured, they transferred to a single cage at each measurement. To reduce stress which affected the body temperature, the rats were covered with towels at the measurement. The thermistor probe was then carefully inserted into the rectum of each rat and left in place until the value on the digital display had stabilized.
Assays: On the day before dosing, rectal body temperatures were measured at 9:00, 10:00, 11:00, 12:30, 13:30, 14:30 and 15:30 to familiarize the animals with the measurement procedure prior to administration of the test or control treatments. The rats were also dosed by oral gavage without vehicle at 12:30 to acclimate and familiarized the animals with the handling and dosing procedure.
On the day of dosing, only rats whose rectal body temperatures were within the range of 37.0° C. to 37.7° C. were selected for this study. Rectal body temperatures were measured at 9:00, 10:00 and 11:00. Rats whose rectal body temperatures were over 37.9° C. at 10:00, and were outside the range of 37.0° C. to 37.7° C. at 11:00 were excluded from the study. The selected rats were divided to several groups based on their rectal body temperatures at 11:00. Rectal body temperatures of the selected rats were measured again at 12:30, and any rats whose rectal body temperature was 38.0° C. or greater were excluded from the study.
Following the group assignment, test compounds or vehicle was administrated to the rats. Each test compound was dissolved in 0.5% methylcellurose and the final concentration of the compound was adjusted to 1 mg/mL. Test compound was orally administrated in a volume 10 mL/kg once. 10 mL/kg of vehicle (0.5% methylcellurose) was administered to the vehicle group. The rectal body temperatures were measured 0.5, 1 and 2 hrs after the administration. The study was conducted in the animal care laboratories where the room temperature and humidity were kept.
Body temperature increase (ΔTb) was calculated from the difference from an average of the vehicle group at each time point.

In the case of `Cc1cc(NC(=O)N2CCC(F)(c3ncc(C[C@H](O)CO)cc3F)CC2)ccc1C(F)(F)F` [ACQ, (S)-4-(5-(2,3-dihydroxypropyl)-3-fluoropyridin-2-yl)-4-fluoro-N-(3-methyl-4-(trifluoromethyl)phenyl)piperidine-1-carboxamide], the “Percentage reversal of hyperalgesia, % Reversal (3 mg/Kg, 3 hours post administration)” value [1] is reported as 41.7% and the Body temperature increase [2] is reported as “less than 0.5 °C”.
